Data: article PMC11129182, “Development of Inhibitors, Probes, and PROTAC Provides a Complete Toolbox to Study PARK7 in the Living Cell” (Journal of Medicinal Chemistry, 2024)
Entries after “also recorded” stand apart in the source; their conditions may differ.

Columns and labels:
PARK7 [1] = target: T1, PARK7 (Homo sapiens, UniProt Q99497); assay: Hit validation and pure-compound testing in the PARK7 FP assay with JYQ-107; assay type: biochemical; details: pure compounds
T1 sequence (Q99497 1-189): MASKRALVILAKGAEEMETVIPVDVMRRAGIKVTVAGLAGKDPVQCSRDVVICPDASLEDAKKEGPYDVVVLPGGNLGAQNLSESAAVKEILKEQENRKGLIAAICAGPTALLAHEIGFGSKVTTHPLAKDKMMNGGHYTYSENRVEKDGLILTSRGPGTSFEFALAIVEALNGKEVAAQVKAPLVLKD

PARK7 [2] = target: T1, PARK7; assay: Cell-based competition assay with probe JYQ-92 in HEK293T cells; details: intact HEK293T cells, concentration series, 24 h
Description: Samples were resolved by SDS-PAGE and analyzed by fluorescence scanning and Western blotting (Figure 2B). The target engagement of cellular PARK7 is reflected by the disappearance of the PARK7 labeling band in the fluorescence gel scan and by the loss of the shifted probe-labeled PARK7 band in the Western blot.
HEK293T cells were treated with the indicated concentrations of indicated inhibitors for indicated incubation time.
Figure S1. Assessment of the cell permeability of JYQ -88. (A) Structure of JYQ-92.
(B) Target engagement of JYQ-88 in HEK293T cells. HEK293T cells were incubated […]
with PARK7 probe JYQ-92 fo r 1 h at 37 °C. The reactions were stopped by the addition of NuPAGE™ LDS sample buffer (4x). Samples were resolved by SDS -PAGE using […]
fluorescence scanning on a Typhoon FLA 9500 (GE Healthcare Life Sciences) using […]
The disappearance of the JYQ-92-labeled band in […]
of JYQ-88 is used as a measurement of cellular PARK7 engagement with JYQ -88.
(1 picture or pasted object on this page, not shown here)

PARK7 [3] = target: T1, PARK7; details: read-out: IC50 (nM) DiFUMAc; 0.1 μM PARK7, 1 h preincubation, 300 μM DiFMUAc
Description: Compounds were transferred using a Labcyte Echo550 acoustic dispenser to obtain a 12-point serial dilution of 0.001–100 μM. Next, PARK7 (15 μL, final concentration 0.1 μM) was dispensed with a Biotek MultiFlowFX liquid dispenser and incubated for 1 h, followed by dispensing the substrate DiFMUAc (5 μL, final concentration 300 μM). The fluorescence intensity (FI) signal was monitored on a BMG Labtech PHERAstar plate reader (λex/em 350/450 nm) for 1 h.

PARK7 [4] = target: T1, PARK7; assay: Probe labeling of endogenous PARK7 in cells (HEK293T, A549); assay type: cell-based; details: for labeling of PARK7 in cells / cellular PARK7 labeling efficiency over time: 5 μM; for labeling of PARK7 in cells: 24 h; for cellular PARK7 labeling efficiency over time: A549 cells, indicated time points
Description: To further investigate the ability of these probes to visualize PARK7 in cells, HEK293T and A549 cells were incubated with 5 μM of these probes for 24 h, followed by cell lysis, SDS-PAGE, fluorescence scanning, and immunostaining (Supporting Information Figure S7). […] We also observed a band shift of the PARK7 protein in the samples treated with JYQ-192, JYQ-196, and JYQ-197 by immunoblot against PARK7 in A549 cells. […] Therefore, we further investigated JYQ-192, JYQ-196, and JYQ-197. To characterize their cell permeability, A549 cells were incubated with 5 μM final concentration of these probes for the indicated time points, followed by confocal microscopy and by cell lysis, SDS-PAGE, fluorescence scanning, and immunostaining. All three probes already entered the cells after 1 h incubation (Supporting Information Figure S8A). […] Besides PARK7, we observed extra bands in the fluorescence scan for both HEK293T and A549 cells and a very strong band labeling between 55 and 75 kDa in A549 cells with a 5 μM final concentration of all probes.
Despite the fact that probe JYQ-196 outperformed SulfoCy5 probes JYQ-192 and JYQ-197 in terms of the cellular PARK7 labeling efficiency, this probe still lacked specificity toward PARK7. PARK7 is known to form dimers, trimers, and even high-molecular-weight complexes under nonreducing conditions.[29],[30] […] To investigate further whether lower concentrations of JYQ-196 can decrease unspecific labeling, HEK293T and A549 cells were incubated with increased concentrations (0–10 μM) of JYQ-196 for 4 h, followed by cell lysis, SDS-PAGE, fluorescence scanning, and immunostaining (Figure 4C).
Oligos used to knockdown PARK7 were purchased from Dharmacon (Cat#: MQ-005984-00-0002). Silencing was performed in HEK293T and A549 cells as follows: for a 24-well plate format, 50 μL of siRNA (500 nM stock) was incubated with 1 μL of Dharmafect reagent 1 (Dharmacon) diluted in 50 μL of medium without supplements (total volume of 100 μL of transfection mix) with gentle shaking for 20 min at room temperature (RT). A total of 30 × 10^3 HEK293T or 50 × 10^3 cells were added to transfection mixes to a total volume of 500 μL per well and cultured for 48 h prior to incubation with 5 μM final concentration of JYQ-196 for 4 h.
HEK293T or A549 cells were incubated with indicated concentration of the probes for the indicated time points, followed by cell lysis and adding loading buffer (4x).

PARK7 [5] = target: T1, PARK7; assay: Probe labeling of purified recombinant PARK7; details: 1 μM PARK7, 1 h, 37 °C
Description: The ability of these probes to label and visualize PARK7 activity in vitro was evaluated by treating recombinant human PARK7 protein (1 μM) with a concentration series of the probes for 1 h at 37 °C, followed by SDS-PAGE analysis under nondenaturing conditions (without boiling and β-mercaptoethanol).
The assay was conducted in Tris-buffer (50 mM Tris-HCl, 150 mM NaCl, 2 mM TCEP, pH 7.5). PARK7 (1 μM final concentration) was incubated with different concentrations (0, 0.1, 0.5, 1, 2, 5, and 10 μM) of the indicated probes for 1 h at 37 °C. After completing the incubation time, all of the reactions were stopped by adding NuPAGE LDS sample buffer (4x).

| Compound | inhibition at 0.25 µM (PARK7 [1]; 0.25 µM, read-out: % Inhibition 0.25 µM) | inhibition at 1 µM (PARK7 [1]; 1 µM) | IC50 (PARK7 [3]) | labeling of PARK7 in cells (PARK7 [4]; HEK293T and A549 cells) | probe concentration giving complete labeling of recombinant PARK7 (Coomassie band shift) (PARK7 [5]) | specificity of labeling (PARK7 siRNA depletion) (PARK7 [4]; HEK293T and A549 cells, siPARK7 48 h, then 5 μM for 4 h) | cellular PARK7 engagement of JYQ-88 (PARK7 [2]) | cellular PARK7 labeling efficiency over time (PARK7 [4]) |
| --- | --- | --- | --- | --- | --- | --- | --- | --- |
| N#CN1CC[C@@H](C(=O)Nc2nc3c(s2)CN(C(=O)CN=[N+]=[N-])CC3)C1 [JYQ-88, reference compound] | 55.4% | 83.2% | 120 nM |  |  |  | did not show inhibition of PARK7 in cells; also recorded: poor cellular engagement |  |
| CC1=CC(C)=[N+]2C1=C(CCCCc1cn(CC(=O)N3CCN(S(=O)(=O)c4cccc(C(=O)N5CCc6nc(NC(=O)[C@@H]7CCN(C#N)C7)sc6C5)c4)CC3)nn1)c1c(C)cc(C)n1[B-]2(F)F [JYQ-191] |  |  |  | inefficient labeling of cellular PARK7 | 5 µM |  |  |  |
| O=C1C(=O)N(CCc2ccccc2)c2ccc(F)cc21 [STK793590] |  |  | 130 nM |  |  |  |  |  |

The next lines start with results.

| inhibition at 0.25 µM (PARK7 [1]; 0.25 µM, read-out: % Inhibition 0.25 µM) | inhibition at 1 µM (PARK7 [1]; 1 µM) | IC50 (PARK7 [3]) | labeling of PARK7 in cells (PARK7 [4]; HEK293T and A549 cells) | probe concentration giving complete labeling of recombinant PARK7 (Coomassie band shift) (PARK7 [5]) | specificity of labeling (PARK7 siRNA depletion) (PARK7 [4]; HEK293T and A549 cells, siPARK7 48 h, then 5 μM for 4 h) | Compound | cellular PARK7 engagement of JYQ-88 (PARK7 [2]) | cellular PARK7 labeling efficiency over time (PARK7 [4]) |
| --- | --- | --- | --- | --- | --- | --- | --- | --- |
|  |  |  | clear band around 25 kDa | 2 µM |  | CC[N+]1=C(/C=C/C=C/C=C2/N(CCCCCC(=O)NCCCc3cn(CC(=O)N4CCN(S(=O)(=O)c5cccc(C(=O)N6CCc7nc(NC(=O)[C@@H]8CCN(C#N)C8)sc7C6)c5)CC4)nn3)c3ccc(S(=O)(=O)[O-])cc3C2(C)C)C(C)(C)c2cc(S(=O)(=O)O)ccc21 [JYQ-192] |  | labeled a small portion of cellular PARK7 even after 24 h incubation |
|  |  |  | clear band around 25 kDa | 2 µM | unspecific labeling of other proteins | CC1=CC(C)=[N+]2C1=C(CCCCc1cn(-c3ccc(F)c(C(=O)N4CCc5nc(NC(=O)[C@@H]6CCN(C#N)C6)sc5C4)c3)nn1)c1c(C)cc(C)n1[B-]2(F)F [JYQ-196] |  | complete labeling of cellular PARK7 after 4 h incubation |
|  |  |  | clear band around 25 kDa | 1 µM |  | CC[N+]1=C(/C=C/C=C/C=C2/N(CCCCCC(=O)NCCCc3cn(-c4ccc(F)c(C(=O)N5CCc6nc(NC(=O)[C@@H]7CCN(C#N)C7)sc6C5)c4)nn3)c3ccc(S(=O)(=O)O)cc3C2(C)C)C(C)(C)c2cc(S(=O)(=O)[O-])ccc21 [JYQ-197] |  | labeled a small portion of cellular PARK7 even after 24 h incubation |
